Laboratory results from patent US20050037923A1, “Herbicidal mixture based on 7-pyrazolybenzoxazoles” (BASF Aktiengesellschaft, priority 2001, published 2005).
Where a name gives a salt, the structure may show the parent alone.

Tests used:
[1] = tested on: BRAPL; assay: Greenhouse test, post-emergence herbicidal action; format: in vivo, alexandergrass
Source text: (§1) For the post-emergence treatment, the test plants were first grown to a height of 3 to 20 cm, depending on the plant habit, and only then treated. Here, the herbicidal compositions were suspended or emulsified in water as distribution medium and sprayed using finely distributing nozzles.
(§2) The respective components A and B and/or C were formulated as 10% by weight strength emulsion concentrate and introduced to the spray liquor with the amount of solvent system used for applying the active compound. In the examples, the solvent used was water.
(§3) The test period extended over 21 days. During this time, the plants were tended, and their response to the treatments with active compound was evaluated.
(§4) The evaluation for the damage caused by the chemical compositions was carried out using a scale from 0 to 100%, compared to the untreated control plants. Here, 0 means no damage and 100 means complete destruction of the plants.
(§5) In the examples below, the value E which is to be expected if the activity of the individual active compounds is just additive was calculated using the method of S. R. Colby (1967) “Calculating synergistic and antagonistic responses of herbicide combinations”, Weeds 15, p. 22 ff. E=X+Y—(X·Y/100) where • X=effect in percent using active compound A at an application rate a; • Y=effect in percent using active compound B at an application rate b; • E=expected effect (in %) of A+B at application rates a+b.
(§6) The plants used in the greenhouse experiments were of the following species: […]

[2] = tested on: BIDPI; assay: Greenhouse test, post-emergence herbicidal action; format: in vivo, hairy beggarticks
Source text: as §1, §2, §3, §4, §5, §6

[3] = tested on: GALAP; assay: Greenhouse test, post-emergence herbicidal action; format: in vivo, catchweed bedstraw
Source text: as §1, §2, §3, §4, §5, §6

[4] = tested on: ECHCG; assay: Greenhouse test, post-emergence herbicidal action; format: in vivo, barnyardgrass
Source text: as §1, §2, §3, §4, §5, §6

[5] = tested on: POLPE; assay: Greenhouse test, post-emergence herbicidal action; format: in vivo, ladysthumb
Source text: as §1, §2, §3, §4, §5, §6

[6] = tested on: ABUTH; assay: Greenhouse test, post-emergence herbicidal action; format: in vivo, velvet leaf; conditions: 21 days
Source text: as §1, §2, §3, §4, §5, §6

[7] = tested on: AVEFA; assay: Greenhouse test, post-emergence herbicidal action; format: in vivo, wild oat
Source text: as §1, §2, §3, §4, §5, §6

[8] = tested on: crop plants; assay: Safener action, pre-emergence, damage to crop plants; format: in vivo; conditions: 21 days, application rate 100 g/ha
Source text: (§7) For the pre-emergence treatment, the test plants were sown is pots 1-2 days later, i.e. prior to germination, the pots were sprayed with the finely distributed herbicidal compositions, which had been suspended in water.
as §2, §4
As in the example above, test plants were grown, treated with the mixture according to the invention by the Pre-emergence method and, after a test period of 21 days, evaluated using a scale from 0 to 100% damage. The test plants used were crop plants.
A safener action is present if the damage to the crop plant caused by using a mixture according to the invention which comprises a safener C) is less than the damage caused when active compound A or active compounds A and B are used without safener.

[9] = tested on: ABUTH; assay: Greenhouse test, pre-emergence herbicidal action; format: in vivo, velvet leaf
Source text: as §7, §2, §3, §4, §5, §6

[10] = tested on: BIDPI; assay: Greenhouse test, pre-emergence herbicidal action; format: in vivo, hairy beggarticks
Source text: as §7, §2, §3, §4, §5, §6

[11] = tested on: VERSS; assay: Greenhouse test, post-emergence herbicidal action; format: in vivo, speadwell; conditions: application rate 250 g/ha
Source text: as §1, §2, §3, §4, §5, §6

[12] = tested on: POAAN; assay: Greenhouse test, post-emergence herbicidal action; format: in vivo, annual bluegrass; conditions: application rate 250 g/ha
Source text: as §1, §2, §3, §4, §5, §6

[13] = tested on: MATIN; assay: Greenhouse test, post-emergence herbicidal action; format: in vivo, false chamomille; conditions: application rate 250 g/ha
Source text: as §1, §2, §3, §4, §5, §6

[14] = application rate 0.49 g/ha (Example 32)
[15] = application rate 0.98 g/ha (Example 32)
[16] = application rate 62.5 g/ha, 21 days
[17] = application rate 125 g/ha, 21 days
[18] = application rate 125 g/ha (Example 28)
[19] = application rate 250 g/ha (Example 28)

Compound: CNC.O=C(O)COc1ccc(Cl)cc1Cl [2,4-D dimethylamine salt]
- Herbicidal action against BRAPL, Found ([1]; application rate 31.25 g/ha): 10%
- Herbicidal action against BRAPL, Found ([1]; application rate 62.5 g/ha): 15%
- Herbicidal action against BIDPI, Found ([2]; application rate 31.25 g/ha): 80%
- Herbicidal action against BIDPI, Found ([2]; application rate 62.5 g/ha (Example 31)): 80%

Compound: CCCc1nc2c(Cl)cc(F)c(-c3nn(C)c(OC(F)F)c3Br)c2o1 [I.15]
- Herbicidal action against BRAPL, Found ([1]; application rate 0.49 g/ha): 30%
- Herbicidal action against BRAPL, Found ([1]; application rate 0.98 g/ha): 75%
- Herbicidal action against GALAP, Found ([3]; application rate 0.49 g/ha (Example 29)): 40%
- Herbicidal action against GALAP, Found ([3]; application rate 0.49 g/ha (Example 30)): 40%
- Herbicidal action against GALAP, Found [3, 14]: 40%
- Herbicidal action against GALAP, Found ([3]; application rate 0.98 g/ha (Example 29)): 70%
- Herbicidal action against GALAP, Found ([3]; application rate 0.98 g/ha (Example 30)): 70%
- Herbicidal action against GALAP, Found [3, 15]: 70%
- Herbicidal action against BIDPI, Found ([2]; application rate 0.49 g/ha): 30%
- Herbicidal action against BIDPI, Found ([2]; application rate 0.98 g/ha): 40%
- Herbicidal action against ECHCG, Found [4, 14]: 30%
- Herbicidal action against ECHCG, Found [4, 15]: 40%

Compound: CC(C)c1nc2c(Cl)cc(Cl)c(-c3nn(C)c(OC(F)F)c3Cl)c2o1 [I.18]
- Herbicidal action against BIDPI, Found ([2]; application rate 1.95 g/ha (Example 26)): 60%
- Herbicidal action against BIDPI, Found ([2]; application rate 1.95 g/ha (Example 27)): 60%
- Herbicidal action against BIDPI, Found ([2]; application rate 3.91 g/ha (Example 26)): 60%
- Herbicidal action against BIDPI, Found ([2]; application rate 3.91 g/ha (Example 27)): 60%

Compound: CCc1cccc(C)c1N(C(=O)CCl)[C@@H](C)COC [S-metolachlor]
- Herbicidal action against GALAP, Found ([3]; application rate 125 g/ha (Example 29)): 0%
- Herbicidal action against GALAP, Found ([3]; application rate 250 g/ha (Example 29)): 20%

Compound: CCNc1nc(Cl)nc(NC(C)C)n1 [atrazine, reference compound]
- Herbicidal action against ECHCG, Found [4, 16]: 45%
- Herbicidal action against ECHCG, Found [4, 17]: 65%

Compound: CC(C)N1C(=O)c2ccccc2NS1(=O)=O [bentazone sodium salt, reference compound]
- Herbicidal action against POLPE, Found [5, 17]: 15%
- Herbicidal action against POLPE, Found ([5]; application rate 250 g/ha, 21 days): 25%
- Herbicidal action against ABUTH, Found ([6]; application rate 125 g/ha): 0%
- Herbicidal action against ABUTH, Found ([6]; application rate 250 g/ha): 20%

Compound: CC1(C)CON(Cc2ccccc2Cl)C1=O [clomazone]
- Herbicidal action against POLPE, Found ([5]; application rate 125 g/ha): 75%
- Herbicidal action against POLPE, Found ([5]; application rate 250 g/ha): 75%

Compound: COc1c(Cl)ccc(Cl)c1C(=O)O [dicamba]
- Herbicidal action against BRAPL, Found [1, 18]: 20%
- Herbicidal action against BRAPL, Found [1, 19]: 20%
- Herbicidal action against AVEFA, Found [7, 18]: 20%
- Herbicidal action against AVEFA, Found [7, 19]: 20%

Compound: C=CCN(CC=C)C(=O)C(Cl)Cl [dichlormid]
- Damage to the crop plant corn (ZEAMX), cultivar Magister [8]: 13%
- Damage to the crop plant corn (ZEAMX), cultivar P3751 [8]: 0%

Compound: C/C(=N\NC(=O)Nc1cc(F)cc(F)c1)c1ncccc1C(=O)O [diflufenzopyr sodium salt]
- Herbicidal action against ABUTH, Found ([9]; application rate 62.5 g/ha): 10%
- Herbicidal action against ABUTH, Found ([9]; application rate 125 g/ha): 30%
- Herbicidal action against BIDPI, Found ([10]; application rate 62.5 g/ha): 40%
- Herbicidal action against BIDPI, Found ([10]; application rate 125 g/ha): 70%

Compound: CC(C)N(C(=O)COc1nnc(C(F)(F)F)s1)c1ccc(F)cc1 [flufenacet]
- Herbicidal action against VERSS, Found [11]: 0%
- Herbicidal action against POAAN, Found [12]: 0%
- Herbicidal action against MATIN, Found [13]: 10%

Compound: CP(=O)(O)CCC(N)C(=O)O (stereo not shown) [glufosinate ammonium salt]
- Herbicidal action against BRAPL, Found ([1]; application rate 125 g/ha (Example 17)): 45%
- Herbicidal action against BRAPL, Found ([1]; application rate 125 g/ha (Example 18)): 45%

Compound: CC(C)N.O=C(O)CNCP(=O)(O)O [glyphosate isopropylamine salt]
- Herbicidal action against AVEFA, Found ([7]; application rate 250 g/ha (Example 15)): 40%
- Herbicidal action against AVEFA, Found ([7]; application rate 250 g/ha (Example 16)): 40%

Compound: COCc1cnc(C2=NC(C)(C(C)C)C(=O)N2)c(C(=O)O)c1 (stereo not shown) [imazamox, reference compound]
- Herbicidal action against BIDPI, Found ([2]; application rate 31.25 g/ha, 21 days): 20%
- Herbicidal action against BIDPI, Found [2, 16]: 60%
